# Patent US9328130B2, “Method of treating organism by biologically active compounds specifically delivered into mitochondria, pharmaceutical composition required for the use of the method and a compound applicable for this purpose” (MITOTECH S.A., priority 2005, dated 2016)
# Assays:
# Yarrowia lipolytica = assay: Protection of yeast cells from death caused by hydrogen peroxide; assay type: cell-based
# human lung fibroblasts = assay: Protection from apoptosis caused by H2O2; assay type: cell-based; settings: preincubation with 20 nM for 6 days
# Description: Normal diploid fibroblasts from human skin and lung, human uterus carcinoma cells (HeLa cells) and human lymphoma cells (U 937 strain) were used in this experiment. Cells were cultivated in standard media (DMEM or RPMI) in the presence of 10% fetal serum at 37° C. and 5% CO2. Experiments were carried out on the cultured cells grown to 30-50% confluency. H2O2 was added once and the cells were analyzed after 18-24 h of incubation. Apoptotic death was monitored by condensation of chromatin and nucleus fragmentation after staining the cells with Hoechst 33342 (1 μg/ml, 15 min). 300-500 cells were taken into account from each preparation and the final results are the average of 3-5 independent experiments. Necrosis was determined by staining of nuclei with propidium iodide (2 μg/ml, 5 min). […] It was confirmed that apoptosis in all cases was accompanied with decrease of mitochondrial membrane potential, release of cytochrome c from mitochondria into cytoplasm and activation of caspases.
# Hela cells [1] = tested on: Hela cells
# [2] = Oxidation of quinols by superoxide-anion radicals generated in xanthine oxidase/hypoxanthine system; assay type: biochemical
# From the text: In order to compare antioxidant activity of the reduced forms, we measured the oxidation rate of quinols by superoxide-anion radicals generated in xanthine oxidase/hypoxanthine system.
# Hela cells [3] = assay: Morphology of HeLa cells; assay type: cell-based, human
# Description: Normal fibroblasts from the human skin and lung and HeLa cells were cultivated at low cell density (20-30% confluency). Morphometric measurements were carried out for cell area, dispersion and elongation. Cytoskeleton structures were analyzed by staining the fixed cell preparations with rhodamine falloidin (actin filaments), antibodies against tubulin (microtubules) and vinculin (surface contacts). Mobility of the cells was examined with the help of microvideo camera.
# Hela cells [4] = assay: Necrosis after photodynamic treatment (chloromethyl-X-rosamine, green light); assay type: cell-based, human
# Description: Protection from photodynamic treatment was studied using cultured HeLa cells. Cells were incubated with photosensitizer chloromethyl-X-rosamine (0.5 μM, 15 min) which was then selectively accumulated within mitochondria. Cells were photoirradiated with green light (at maximum absorption for photosensitizer of […]) through the objective of microscope Axiovert 200M (Zeiss, Germany) for 1-2 min and analyzed 5 h later. Necrosis was determined by staining of nuclei with propidium iodide (2 μg/ml, 5 min).
# Hela cells [5] = assay: Transmission of apoptotic signal between inducer and recipient slides; assay type: cell-based, human; settings: for apoptosis at slide-recipient: TNF
# Description: HeLa cells were used in these experiments. Cells grown on a glass slide were treated with different apoptosis-inducing agents (tumor necrosis factor (TNF), staurosporine, H2O2) for 3 h. Then the glass slide with cells (inducer) was washed to remove these reagents and placed into Petri plate to come into contact with glass slide (recipient) with cells grown in the absence of any apoptosis-inducing agent. After 16-18 h of subsequent growth and staining the cells with Hoechst 33342 as described above, apoptosis at both glass slides was analyzed.
# Thus the main mediator of apoptosis signal was H2O2.
# [6] = Light-dependent inactivation of gramicidin channel in model lipid membrane with phthalocyanine photosensitizer; assay type: biochemical; settings: SkQ1 at 1 μM
# [7] = tested on: coronary arteries of the isolated hearts of rats; assay: Isolated perfused rat heart, perfusion pressure during H2O2 introduction; assay type: in vivo
# Description: It is known that reactive oxygen species (ROS) have regulatory or toxic effects on a cardiac muscle depending on their concentrations. When studying SkQ1 compound its ability to modulate ROS action has been found. Experiments have been carried out in the isolated hearts of rats which were given SkQ1 intravenously or with nutrition (50 μg/kg). The heart was isolated 2 hours after intravenous introduction of the compound, or after 2-week nutritional supplementation. The heart was perfused retrogradely according to a standard procedure by Krebs solution with a constant rate, and perfusion pressure (PP) characterized the tonus of coronary arteries. A spontaneous heart rate and isovolumic pressure in a left ventricular latex balloon were also recorded. These parameters were monitored at 40-minute introduction of 150 mcM H2O2, a standard ROS generator.
# [8] = Spontaneous oxidation of reduced (quinol) forms by air oxygen; assay type: physicochemical; settings: 20 mM MOPS-KOH, pH=7.6; aerobic
# Description: Stability of the reduced (quinols) forms of SkQ1 and MitoQ under aerobic conditions was examined by analysis of the absolute absorption spectra of these compounds in a range from 240 to 310 nm using double-beam spectrophotometer Pye Unicam SP1100, England. Quinone derivatives were reduced with sodium tetrahydroborate in the medium containing 20 mM MOPS-KOH, pH=7.6. […] The level of reduced quinones was estimated by the size of peak area using the weighing method; absolute absorption value at 267 nm (maximum absorption) was used as a control.
# Plants cuttings = assay: Development of higher plants under darkness stress; assay type: in vivo
# Description: Plants cuttings were grown at the artificial agarized medium MS supplemented with 1 μM SkQ1 (3 plants) and with no addition of SkQ1 as a control (3 plants). Cuttings were placed into 50 ml transparent tubes and grown in climate chamber for 3 weeks at 27° C. and periodical illumination (14 h of light, 10 h of darkness). Then the plants were subjected to darkness stress, i.e. were grown in complete darkness for 7 days.
# [9] = tested on: respiratory chain of rat liver mitochondria; assay type: biochemical
# Description: FIG. 5 describes the oxidation of quinols of “MitoQ” and “SkQ1” by respiratory chain of rat liver mitochondria energized with succinate (5 mM) in the presence of 2 μM rotenone. After complete reduction of […] the respiratory chain was blocked with 25 mM malonate and reoxidation rate of “MitoQ” and “SkQ1” was measured. In order to examine whether the test compounds (SkQ1 and MitoQ) can be reduced by the respiratory chain of mitochondria, changes of the ratio between oxidized and reduced forms of test compounds were measured in the presence of respiratory substrates in a medium used for isolation of rat liver mitochondria. The measurements were carried out in the presence of mitochondria (protein concentration 0.2 mg/ml).
smiles,measurement,setting,value
"CC1=C(C)C(=O)C(CCCCCCCCCC[P+](c2ccccc2)(c2ccccc2)c2ccccc2)=CC1=O.[Br-] [SkQ1, 2,3-dimethyl-1,4-benzoquinon-5-decyl-triphenylphosphonium bromide]",concentration as effective as 25 μM α-tocopherol,Yarrowia lipolytica,10 -fold lower
same,death of cells caused by hydrogen peroxide,Yarrowia lipolytica; 10 mM hydrogen peroxide,partially prevents the death
same,effect on survival compared among protectants,"Yarrowia lipolytica; FIG. 14, α-tocopherol 25 μM",very similar
same,apoptosis among cell population,human lung fibroblasts; 100 μM H2O2,7±3%
same,apoptosis among cell population,human lung fibroblasts; 200 μM H2O2,12±5%
same,LD50 in the presence of hydrogen peroxide,Hela cells [1]; 100 μM hydrogen peroxide,20 µM
same,LD50 (concentrations at which 50% cells die),"Hela cells [1]; 2 h of incubation, no hydrogen peroxide",20 µM
same,oxidation rate in the presence of both air oxygen and superoxide radical relative to MitoQ,[2]; FIG. 3a,about two times higher
same,oxidation rate of quinol form by superoxide radical relative to MitoQ,"[2]; oxidation by air oxygen subtracted, FIG. 3b",very much faster than MitoQ
same,amount of actin filaments,Hela cells [3],increased
same,mean density of filaments,Hela cells [3],not changed
same,"mean area, times higher",Hela cells [3]; same treatment as fibroblasts,2.6 times
same,necrotic cell death,Hela cells [4]; 1 μM added 1 h before photoirradiation,15±5%
same,necrosis from photodynamic treatment,Hela cells [4]; preincubated with 20 nM for 6 days,25±5%
same,H2O2 concentration in the medium,"Hela cells [5]; 24 hours after contact, inductor cells preincubated",40 ± 10 nM
same,apoptosis at slide-recipient,Hela cells [5]; preincubation of inducer with 20 nM,17±3%
same,apoptosis at slide-recipient,Hela cells [5]; preincubation of recipient cells,16±4%
same,protective effect on recipient cells,Hela cells [5]; corrected for 12±3% apoptosis from emetine,~100%
same,apoptosis at slide-inducer caused by TNF,Hela cells [5]; inductor cells incubated with 20 nM for 6 days,90±5%
same,H2O2 concentration in the medium,Hela cells [5]; recipient cells preincubated,did not lead to decrease of H2O2 concentration
same,light-dependent inactivation of gramicidin,[6],completely prevents
same,PP change at the end of H2O2 introduction,[7]; prolonged consumption,−29±6 mmHg
same,maximal PP decline,[7]; prolonged consumption (2-week nutritional supplementation),−38±5 mmHg
same,maximal PP decline versus initial level before H2O2,[7]; single intravenous introduction,−43±5 mmHg
same,minimal perfusion pressure (PP) level,"[7]; single intravenous introduction 50 μg/kg, heart isolated 2 hours later, 150 mcM H2O2",77±2 mm Hg
same,autooxidation of the reduced (quinol) form by air oxygen relative to MitoQ,[8],about three-fold lower
same,colour of plants after darkness stress,"Plants cuttings; 1 μM in MS medium, 7 days complete darkness",retained their green color
same,plant size in comparison to control plants,"Plants cuttings; 1 μM, additional 20 days normal lighting",more than 3 times
same,concentration not suppressing mitochondrial respiration,[9],up to 10 μM
same,time compound retains intact under incubation conditions in biological media,[9]; whole experiment,at least tens of minutes
